Test results taken from BigSolDB 2.1.

O=C(O)c1cccc(C(=O)O)n1
Details	solubility (mole fraction)
in 1,4-dioxane, 293.15 K	0.00197
in 1,4-dioxane, 298.15 K	0.00219
in 1,4-dioxane, 303.15 K	0.0025
in 1,4-dioxane, 308.15 K	0.00291
in 1,4-dioxane, 313.15 K	0.00336
in 1,4-dioxane, 318.15 K	0.00393
in 1,4-dioxane, 323.15 K	0.00481
in 1,4-dioxane, 328.15 K	0.00567
in 1,4-dioxane, 333.15 K	0.00671
in THF, 278.15 K	0.00256
in THF, 283.15 K	0.00275
in THF, 288.15 K	0.00302
in THF, 293.15 K	0.00338
in THF, 298.15 K	0.00381
in THF, 303.15 K	0.00421
in THF, 308.15 K	0.00462
in THF, 313.15 K	0.00494
in THF, 318.15 K	0.00549
in acetic acid, 293.15 K	0.000799
in acetic acid, 298.15 K	0.000876
in acetic acid, 303.15 K	0.000991
in acetic acid, 308.15 K	0.00116
in acetic acid, 313.15 K	0.00131
in acetic acid, 318.15 K	0.00156
in acetic acid, 323.15 K	0.00177
in acetic acid, 328.15 K	0.00197
in acetic acid, 333.15 K	0.00227
in acetonitrile, 278.15 K	0.000183
in acetonitrile, 283.15 K	0.000225
in acetonitrile, 288.15 K	0.000258
in acetonitrile, 293.15 K	0.000306
in acetonitrile, 298.15 K	0.000379
in acetonitrile, 303.15 K	0.000453
in acetonitrile, 308.15 K	0.000548
in acetonitrile, 313.15 K	0.000653
in acetonitrile, 318.15 K	0.000779
in ethanol, 278.15 K	0.00378
in ethanol, 288.15 K	0.00492
in ethanol, 293.15 K	0.00579
in ethanol, 298.15 K	0.00702
in ethanol, 303.15 K	0.00846
in ethanol, 308.15 K	0.00974
in ethanol, 313.15 K	0.0114
in ethanol, 318.15 K	0.0142
in ethyl acetate, 278.15 K	0.000247
in ethyl acetate, 283.15 K	0.000353
in ethyl acetate, 288.15 K	0.000602
in ethyl acetate, 293.15 K	0.000897
in ethyl acetate, 298.15 K	0.00131
in ethyl acetate, 303.15 K	0.00215
in ethyl acetate, 308.15 K	0.00329
in ethyl acetate, 313.15 K	0.00477
in ethyl acetate, 318.15 K	0.00742
in formic acid, 278.15 K	0.00285
in formic acid, 283.15 K	0.00305
in formic acid, 288.15 K	0.00326
in formic acid, 293.15 K	0.00361
in formic acid, 298.15 K	0.00408
in formic acid, 303.15 K	0.00456
in formic acid, 308.15 K	0.00507
in formic acid, 313.15 K	0.00596
in formic acid, 318.15 K	0.00694
in isopropanol, 278.15 K	0.0038
in isopropanol, 283.15 K	0.00417
in isopropanol, 288.15 K	0.00485
in isopropanol, 293.15 K	0.00555
in isopropanol, 298.15 K	0.00638
in isopropanol, 303.15 K	0.00735
in isopropanol, 308.15 K	0.00896
in isopropanol, 313.15 K	0.0106
in isopropanol, 318.15 K	0.0125
in methanol, 278.15 K	0.00449
in methanol, 283.15 K	0.0048
in methanol, 288.15 K	0.00547
in methanol, 293.15 K	0.00676
in methanol, 298.15 K	0.00874
in methanol, 303.15 K	0.0118
in methanol, 308.15 K	0.0155
in methanol, 313.15 K	0.0209
in methanol, 318.15 K	0.026
in n-propanol, 278.15 K	0.00311
in n-propanol, 283.15 K	0.00361
in n-propanol, 288.15 K	0.00433
in n-propanol, 293.15 K	0.00512
in n-propanol, 298.15 K	0.00632
in n-propanol, 303.15 K	0.00761
in n-propanol, 308.15 K	0.00892
in n-propanol, 313.15 K	0.0107
in n-propanol, 318.15 K	0.0135
in toluene, 278.15 K	0.000365
in toluene, 283.15 K	0.000582
in toluene, 288.15 K	0.000848
in toluene, 293.15 K	0.00119
in toluene, 298.15 K	0.00175
in toluene, 303.15 K	0.00253
in toluene, 308.15 K	0.00356
in toluene, 313.15 K	0.00487
in toluene, 318.15 K	0.00589
